The values below come from paper PMC9919591, “New Triazine Derivatives as Serotonin 5-HT6 Receptor Ligands” (Molecules, 2023).

“And” between values parts separate entries of the source, which are not always exact repeats. Identical values can stand only once. Like-named read-outs stand apart in the source and are kept apart here.

For series [1] the following is noted: PAMPA, study b; cited from earlier work. A general note: The PAMPA barrier holds no transporters, so it reflects passive diffusion.
The target in a further series is T1, human D2R (Homo sapiens, UniProt P14416).
T1 construct: expressed in transfected cells; host or cells: HEK293
Description: Radioligand binding assay, D2R ([3H]-raclopride). The following applies: HEK293 cells stably expressing human D2R. Here is the method: (§1) Affinity for serotonin 5-HT2A, 5-HT7 and dopamine D2 receptors (D2R) as protein off-targets was evaluated in the radioligand binding assays. In CHO-K1 cells, it was stably expressed human 5-HT2AR, whereas human 5-HT7R and D2R were stably expressed in HEK293 cells. […] A particularly weak affinity towards this receptor was shown through compounds of series 1 (compounds 1–7) and series 2 (compounds 8–13). […]. Radioligand binding assays were used to determine the affinity of the synthesized compounds for human serotonin 5-HT6R, 5-HT2AR, 5-HT7R and dopamine D2R, which were stably expressed in HEK293 cells or CHOk1 cells (5-HT2AR). This was done as described previously.

Another series concerns HepG2 cells. The experiment in a line: Hepatotoxicity, MTS assay on HepG2 cells. It is filed as cell-based, human. The method, then:
Some substances can lead to liver damage. To eliminate this risk, hepatotoxicity tests are carried out as early as the pre-clinical development phase. One of the methods commonly used to assess the adverse effect of tested compounds on cell viability is the MTT assay, and the most popular cell lines are HepG2 and HepaRG (the human hepatocellular carcinoma cells). To evaluate the toxic effect of compound 3, the MTS assay (one-step MTT assay variant) was performed on the HepG2 cells. HepG2 cells were incubated with increasing concentrations (0.78–50 µM) of compound 3 for 48 h. After that time, the MTS reagent was added and incubated for 1 h. Next the absorbance was read at 490 nm.
The hepatoma cell line HepG2 (ATCC® HB-8065TM) was used to assess the hepatotoxicity of the compounds according to previously described protocols. The CellTiter 96® AQueous Non-Radioactive Cell Proliferation Assay was purchased from Promega (Madison, WI, USA). Compound 3 was tested in two independent experiments in triplicate at seven concentrations (0.78, 1.56, 3.125, 6.25, 12.5, 25 and 50 µM) for […].
A general note: Formazan colour is commonly taken as a measure of viable cells.

In the next series the target is T2, human 5-HT7R (Homo sapiens, UniProt P34969).
T2 construct: expressed in transfected cells; host or cells: HEK293
Description: Radioligand binding assay, 5-HT7R ([3H]-5-CT). Here is the method:
as §1

Series [2] is described as follows: PAMPA assay (BBB penetration, passive transport). In kind it is in vitro ADME. The following applies: study a. An excerpt: This test is a very popular method for assessing BBB penetration via passive transport.
In another series the target is T3, human 5-HT6R (Homo sapiens, UniProt P50406).
T3 construct: expressed in transfected cells; host or cells: HEK293
The experiment in a line: Radioligand binding assay, 5-HT6R ([3H]-LSD). The following applies: [3H]-LSD; HEK293 cells stably expressing human 5-HT6R; average of at least two independent experiments. Here is the method:
The affinity of compounds (1–25) for 5-HT6R was evaluated in the radioligand binding assay in HEK293 cells stably expressing human 5-HT6R. [^3H]-LSD as a radioligand was used. […] All results are collected in Table 1, Table 2 and Table 3.
Radioligand binding assays were used to determine the affinity of the synthesized compounds for human serotonin 5-HT6R, 5-HT2AR, 5-HT7R and dopamine D2R, which were stably expressed in HEK293 cells or CHOk1 cells (5-HT2AR). This was done as described previously.

The next series concerns the target T4, human 5-HT2AR (Homo sapiens, UniProt P28223).
T4 construct: expressed in transfected cells; host or cells: CHO-K1
The experiment in a line: Radioligand binding assay, 5-HT2AR ([3H]-ketanserin). The conditions noted are these: CHO-K1 cells stably expressing human 5-HT2AR. The method, then:
as §1

Where [3] appears, read: HEK293 cells stably expressing human 5-HT7R.

T4 sequence (P28223 whole entry): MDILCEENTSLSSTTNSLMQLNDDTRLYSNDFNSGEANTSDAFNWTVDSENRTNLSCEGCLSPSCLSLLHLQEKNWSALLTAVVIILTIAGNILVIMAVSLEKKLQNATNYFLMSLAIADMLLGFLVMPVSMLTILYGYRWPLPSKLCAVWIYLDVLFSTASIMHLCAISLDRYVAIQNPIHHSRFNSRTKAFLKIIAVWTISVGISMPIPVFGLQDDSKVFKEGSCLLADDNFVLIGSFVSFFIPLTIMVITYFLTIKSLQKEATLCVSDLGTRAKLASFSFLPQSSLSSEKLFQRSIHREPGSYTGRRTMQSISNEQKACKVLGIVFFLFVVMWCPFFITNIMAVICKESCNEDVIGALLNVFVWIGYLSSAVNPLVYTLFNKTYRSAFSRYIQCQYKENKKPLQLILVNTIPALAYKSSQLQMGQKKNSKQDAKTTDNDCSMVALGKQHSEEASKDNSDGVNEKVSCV
T2 sequence (P34969 whole entry): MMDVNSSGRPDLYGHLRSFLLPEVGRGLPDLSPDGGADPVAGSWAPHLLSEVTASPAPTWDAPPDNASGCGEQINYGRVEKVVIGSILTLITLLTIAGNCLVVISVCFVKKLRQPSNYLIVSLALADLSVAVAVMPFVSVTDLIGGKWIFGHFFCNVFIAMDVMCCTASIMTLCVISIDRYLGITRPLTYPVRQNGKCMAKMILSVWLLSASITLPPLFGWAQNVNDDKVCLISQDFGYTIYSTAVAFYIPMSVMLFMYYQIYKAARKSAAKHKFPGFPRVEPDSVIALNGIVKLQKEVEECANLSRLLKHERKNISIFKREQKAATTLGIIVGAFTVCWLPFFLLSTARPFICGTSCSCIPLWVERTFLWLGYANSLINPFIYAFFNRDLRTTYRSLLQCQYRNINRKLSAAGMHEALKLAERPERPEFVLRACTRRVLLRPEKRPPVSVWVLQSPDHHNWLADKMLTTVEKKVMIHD
T1 sequence (P14416 whole entry): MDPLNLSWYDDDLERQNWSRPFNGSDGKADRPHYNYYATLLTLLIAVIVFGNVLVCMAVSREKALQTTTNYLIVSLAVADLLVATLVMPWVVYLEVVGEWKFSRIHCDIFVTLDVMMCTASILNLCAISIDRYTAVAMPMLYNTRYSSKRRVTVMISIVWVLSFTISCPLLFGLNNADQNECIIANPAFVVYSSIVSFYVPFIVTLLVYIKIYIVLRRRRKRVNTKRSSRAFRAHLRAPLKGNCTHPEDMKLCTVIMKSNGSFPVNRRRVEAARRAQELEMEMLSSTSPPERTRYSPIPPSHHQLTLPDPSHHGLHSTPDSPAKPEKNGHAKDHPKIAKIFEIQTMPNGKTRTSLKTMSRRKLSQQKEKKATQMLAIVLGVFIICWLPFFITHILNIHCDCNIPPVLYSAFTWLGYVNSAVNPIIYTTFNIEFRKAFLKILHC
T3 sequence (P50406 whole entry): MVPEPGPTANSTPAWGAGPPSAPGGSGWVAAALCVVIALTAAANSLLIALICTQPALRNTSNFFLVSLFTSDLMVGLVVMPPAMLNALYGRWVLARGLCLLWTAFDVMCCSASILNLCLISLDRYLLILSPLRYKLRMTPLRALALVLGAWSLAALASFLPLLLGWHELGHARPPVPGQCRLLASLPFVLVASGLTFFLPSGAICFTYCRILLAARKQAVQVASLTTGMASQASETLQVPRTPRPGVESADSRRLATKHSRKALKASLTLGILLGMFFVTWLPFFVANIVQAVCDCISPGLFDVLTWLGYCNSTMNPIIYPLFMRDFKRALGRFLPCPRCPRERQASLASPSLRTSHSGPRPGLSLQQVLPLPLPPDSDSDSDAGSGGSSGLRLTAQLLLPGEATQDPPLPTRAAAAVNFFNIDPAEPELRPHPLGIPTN

For `Cn1c(=O)c2c(ncn2C)n(C)c1=O` [CFN, Caffeine], in series [1], the “Pe ± SD” value is recorded as 15.1 ± 0.4 ×10^−6 cm/s.
In general, Ki refers to a dissociation constant, usually derived from enzyme kinetics or from competition with a known ligand. As a reminder, the IC50 is the concentration that gives 50% inhibition. Usually melting point stands for the temperature of the solid-liquid transition. Consider `CN1CCN(c2nc(N)nc(COc3ccccc3C(C)(C)C)n2)CC1` [Compound 3, 4-((2-(tert-Butyl)phenoxy)metyl)-6-(4-methylpiperazin-1-yl)-1,3,5-triazin-2-amine], for which the melting point was 107 to 109 °C. Besides, on human D2R, the affinity, expressed as Ki, was 1620 nM. In the series with HepG2 cells (HepG2, MTS assay), the “hepatotoxicity (conclusion in words)” value is listed as “moderate hepatotoxicity”. In addition, the IC50 with HepG2 cells (Homo sapiens, HepG2, MTS assay, 0.78–50 µM, 48 h incubation (72 h elsewhere in the source), read-out: IC50 (HepG2 cells' viability)) turned out to be 46600 nM. The compound also had an inhibition constant (Ki) on human 5-HT7R (setting [3]) of 6340 nM. On human 5-HT7R (compound 3 and its salts), the inhibition constant Ki worked out at 6340 nM. In series [2], the “Pe ± SD” value was 4.7 ×10⁻⁶ cm/s. In addition, the Papp in series [2] (read-out: Pe ± SD) came out at 4.7 ± 0.2 ×10⁻⁶ cm/s. The compound also gave a Ki on human 5-HT6R of 13 nM. The compound further gave an inhibition constant (Ki) on human 5-HT2AR of 2180 nM.
`Cc1cccc(OCCCCCc2nc(N)nc(N3CCN(C)CC3)n2)c1` [Compound 24, 4-(4-Methylpiperazin-1-yl)-6-(5-(m-tolyloxy)pentyl) 1,3,5-triazin-2-amine] had a melting point of 83 to 85 °C. This compound also yielded a Ki at human D2R of 481 nM. On human 5-HT7R (setting [3]), this compound registered a Ki of 1890 nM. The compound further gave an inhibition constant Ki on human 5-HT6R of 644 nM. In addition, on human 5-HT2AR, the inhibition constant (Ki) came out at 854 nM.
Regarding `Cc1ccc(C(C)C)c(OCCCCCCc2nc(N)nc(N3CCN(C)CC3)n2)c1` [Compound 25, 4-(6-(2-Isopropyl-5-methylphenoxy)hexyl)-6-(4-methylpiperazin-1-yl)-1,3,5-triazin-2-amine], the melting point is 59 °C (dec.). Moreover, the affinity on human D2R corresponds to a Ki of 149 nM. Also, affinity at human 5-HT7R (setting [3]) was put at a Ki of 1030 nM. The compound also had a Ki at human 5-HT6R of 78 nM. At human 5-HT2AR, this compound yielded a Ki of 364 nM.
Regarding `Cc1ccc(C(C)C)c(OCc2nc(N)nc(N3CCN(C)CC3)n2)c1` [MST4, 4-((2-isopropyl-5-methylphenoxy)methyl)-6-(4-methylpiperazin-1-yl)-1,3,5-triazin-2-amine], in series [1], the “Pe ± SD” value was 12.3 ×10^−6 cm/s and 12.3 ± 2.0 ×10^−6 cm/s.
